Source: article PMC12775434, “Ultra-large virtual screening unveils potent agonists of the neuromodulatory orphan receptor GPR139” (Nature Communications, 2025)
“And” between values parts separate entries of the source, which are not always exact repeats. Identical values can stand only once.

Molecular target: T1, GPR139 (Gi2 activation) (Homo sapiens, UniProt Q6DWJ6)
T1 construct: expressed in transfected cells; host or cells: HEK293A (transient, Lipofectamine 2000)
T1 sequence (Q6DWJ6 1-353): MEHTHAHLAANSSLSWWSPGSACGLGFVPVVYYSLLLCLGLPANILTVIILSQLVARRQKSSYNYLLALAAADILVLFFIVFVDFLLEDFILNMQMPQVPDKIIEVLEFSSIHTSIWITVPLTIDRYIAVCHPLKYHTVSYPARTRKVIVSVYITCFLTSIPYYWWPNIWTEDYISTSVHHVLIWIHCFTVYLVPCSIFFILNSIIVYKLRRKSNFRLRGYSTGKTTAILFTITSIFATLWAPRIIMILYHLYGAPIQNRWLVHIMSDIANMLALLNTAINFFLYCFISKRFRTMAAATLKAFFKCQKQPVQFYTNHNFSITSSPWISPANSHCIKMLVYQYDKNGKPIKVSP
Test: BRET G protein activation (dissociation) assay, Gi2, HEK293A
Type: cell-based
Conditions: for Emax: HEK293-A, normalized to JNJ-63533054 (JNJ(S)); for EC50: Supplementary Table 6, read-out: pEC50 Gi2 (converted); for G protein activation, Gi2: individual replicates
Protocol: Primary screening and pharmacological characterization of compounds were performed using a CHO-K1 cell line that stably expresses human GPR139 (GPR139-CHOk1). The GPR139-CHOk1 cell line was kindly provided by H. Lundbeck A/S, Denmark[24]. GPR139-CHOk1 cells were grown in Ham’s F-12 Kaighn’s Modification Medium (ThermoFisher #21127030) supplemented with 10% dialyzed fetal bovine serum (US origin, ThermoFisher #26400044), 100 units/mL Penicillin-Streptomycin (ThermoFisher #15140122), and 1 mg/mL Geneticin (ThermoFisher #11811031). […] M1R-CHOk1 cells were purchased from The Missouri S&T cDNA Resource Center (#CEM100TN00). M1R-CHOk1 cells were grown in Ham’s F12 Medium (ThermoFisher #21765029) supplemented with 10% fetal bovine serum (Brazilian origin, ThermoFisher #10270106), 100 units/mL Penicillin-Streptomycin, and 0.25 mg/mL Geneticin. HEK293A cells transiently transfected with GPR139 were used for additional pharmacological assessment of signaling pathways activated by GPR139. HEK239A cells were generously provided by Dr. Asuka Inoue, Tohoku University, Japan. HEK293A cells were grown in Dulbecco’s Modified Eagle Medium (ThermoFisher #31966047) supplemented with 10% dialyzed fetal bovine serum and 100 units/mL Penicillin-Streptomycin. Cell lines were maintained at 37 °C in humidified incubator equilibrated with 5% CO2.
The G protein dissociation assay developed by the lab of Kirill A. Martemyanov was used to measure the coupling of multiple G proteins by GPR139[57]. The assay was performed as described previously with minor modifications. HEK293A cells were reverse transfected 20–24 h prior to assay. 50,000 cells were plated in each well of white opaque tissue culture treated 96-well plates (PerkinElmer #6005680) previously coated with poly-D-lysine. Transfection solutions were prepared as described, and 10 µL transfection solution was mixed with 100 µL cells in each well. The cells in each well were transfected with 18.9 ng GPR139, 6.3 ng Venus 1-155 Gγ2, 6.3 ng Venus 159-239 Gβ1, 6.3 ng masGRK3ct-NanoLuc and 12.6 ng Gαi2, 12.6 ng Gαi3, 12.6 ng GαoA, 12.6 ng Gαq or 25.2 ng Gα12 using 375 nL Lipofectamine 2000 Transfection Reagent. Transfections with Gαq and Gα12 contained 6.3 ng DNA of the active subunit S1 of pertussis toxin (PTX-S1). Each transfection was normalized to 150 ng total DNA with pcDNA3.1. The BRET biosensors were a kind gift from the Martemyanov lab. On the day of the experiment the cells were washed with HEPES buffer. Test compounds were diluted in HEPES buffer from DMSO stocks (final DMSO concentration of maximally 0.3%). NanoLuc Luciferase substrate NanoGlo—furimazine (Promega #N1120) was diluted 1000-fold (final) in HEPES buffer. NanoGlo and test compounds were added, and measurements were performed after 10 s for Gi3, 15 s for Gi2 and GoA, 20 s for Gq, and 90 s for G12—the timepoint where maximal signal occurred with each G protein, ensuring proper determination of the potency for the G protein coupling. Simultaneous dual emission was measured at 535 nm and 475 nm on LUMIstar Omega Microplate Reader (BMG Labtech) at room temperature. The BRET ratio of 535 nm/475 nm (Venus/NanoLuc), reflecting the dissociation of the G protein heterotrimer, was used to determine the G protein activation. The basal BRET ratio obtained with buffer condition was subtracted from the absolute BRET ratio at a given test compound concentration, and the responses were normalized to the one obtained with 10 µM JNJ-63533054 for the activation of Gi2.
Pharmacological data and statistical analyses were performed in GraphPad Prism v9–10 (Graphpad Software Inc., San Diego, CA), which are also specifically described in the figure and table legends. […]

| Emax [%] | EC50 [nM] | Structure (SMILES) | G protein activation, Gi2 (log [compound] M -4.5) | G protein activation, Gi2 (log [compound] M -5.0) | G protein activation, Gi2 (log [compound] M -5.5) | G protein activation, Gi2 (log [compound] M -6.0) | G protein activation, Gi2 (log [compound] M -6.5) | G protein activation, Gi2 (log [compound] M -7.0) | G protein activation, Gi2 (log [compound] M -7.5) | G protein activation, Gi2 (log [compound] M -8.0) | G protein activation, Gi2 (log [compound] M -4.5, listed as JNJ (S)) | G protein activation, Gi2 (log [compound] M -5.0, listed as JNJ (S)) | G protein activation, Gi2 (log [compound] M -5.5, listed as JNJ (S)) | G protein activation, Gi2 (log [compound] M -6.0, listed as JNJ (S)) | G protein activation, Gi2 (log [compound] M -6.5, listed as JNJ (S)) | G protein activation, Gi2 (log [compound] M -7.0, listed as JNJ (S)) | G protein activation, Gi2 (log [compound] M -7.5, listed as JNJ (S)) | G protein activation, Gi2 (log [compound] M -8.0, listed as JNJ (S)) |
| --- | --- | --- | --- | --- | --- | --- | --- | --- | --- | --- | --- | --- | --- | --- | --- | --- | --- | --- |
| 88 ± 11 | 794 | Cc1cscc1-c1nc(CC(=O)N[C@H](C)c2ccccc2)no1 [1.1(R)] | 74 % of JNJ-63533054 at Gi2 and 72 % of JNJ-63533054 at Gi2 and 95 % of JNJ-63533054 at Gi2 | 74 % of JNJ-63533054 at Gi2 and 67 % of JNJ-63533054 at Gi2 and 91 % of JNJ-63533054 at Gi2 | 63 % of JNJ-63533054 at Gi2 and 47 % of JNJ-63533054 at Gi2 and 77 % of JNJ-63533054 at Gi2 | 51 % of JNJ-63533054 at Gi2 and 35 % of JNJ-63533054 at Gi2 and 64 % of JNJ-63533054 at Gi2 | 30 % of JNJ-63533054 at Gi2 and 18 % of JNJ-63533054 at Gi2 and 40 % of JNJ-63533054 at Gi2 | 9 % of JNJ-63533054 at Gi2 and 1.06 % of JNJ-63533054 at Gi2 and 24 % of JNJ-63533054 at Gi2 | 6 % of JNJ-63533054 at Gi2 and -1.09 % of JNJ-63533054 at Gi2 and 22 % of JNJ-63533054 at Gi2 | -2.65 % of JNJ-63533054 at Gi2 and -5 % of JNJ-63533054 at Gi2 and 18 % of JNJ-63533054 at Gi2 |  |  |  |  |  |  |  |  |
| 95 ± 5 | 50.1 | Cc1cscc1-c1nc(CC(=O)N[C@@H](C)c2ccccc2)no1 [1.1(S)] | 94 % of JNJ-63533054 at Gi2 (2×) and 104 % of JNJ-63533054 at Gi2 | 90 % of JNJ-63533054 at Gi2 (2×) and 104 % of JNJ-63533054 at Gi2 | 86 % of JNJ-63533054 at Gi2 and 80 % of JNJ-63533054 at Gi2 and 99 % of JNJ-63533054 at Gi2 | 86 % of JNJ-63533054 at Gi2 and 80 % of JNJ-63533054 at Gi2 and 99 % of JNJ-63533054 at Gi2 | 82 % of JNJ-63533054 at Gi2 and 74 % of JNJ-63533054 at Gi2 and 89 % of JNJ-63533054 at Gi2 | 63 % of JNJ-63533054 at Gi2 and 57 % of JNJ-63533054 at Gi2 and 72 % of JNJ-63533054 at Gi2 | 36 % of JNJ-63533054 at Gi2 and 35 % of JNJ-63533054 at Gi2 and 49 % of JNJ-63533054 at Gi2 | 14 % of JNJ-63533054 at Gi2 and 11 % of JNJ-63533054 at Gi2 and 32 % of JNJ-63533054 at Gi2 |  |  |  |  |  |  |  |  |
| 86 ± 4 | 3980 | C[C@@H](NC(=O)CNC(=O)c1cccc(Cl)c1)c1ccccc1 [JNJ(R), reference compound] | 73 % of JNJ-63533054 at Gi2 and 81 % of JNJ-63533054 at Gi2 and 77 % of JNJ-63533054 at Gi2 | 61 % of JNJ-63533054 at Gi2 and 62 % of JNJ-63533054 at Gi2 and 65 % of JNJ-63533054 at Gi2 | 41 % of JNJ-63533054 at Gi2 and 43 % of JNJ-63533054 at Gi2 and 42 % of JNJ-63533054 at Gi2 | 16 % of JNJ-63533054 at Gi2 and 23 % of JNJ-63533054 at Gi2 and 21 % of JNJ-63533054 at Gi2 | 6 % of JNJ-63533054 at Gi2 and 7 % of JNJ-63533054 at Gi2 and 10 % of JNJ-63533054 at Gi2 | -0.885 % of JNJ-63533054 at Gi2 and 0.48 % of JNJ-63533054 at Gi2 and 10 % of JNJ-63533054 at Gi2 | 0.698 % of JNJ-63533054 at Gi2 and -1 % of JNJ-63533054 at Gi2 and 11 % of JNJ-63533054 at Gi2 | -0.866 % of JNJ-63533054 at Gi2 and -1.55 % of JNJ-63533054 at Gi2 and 11 % of JNJ-63533054 at Gi2 |  |  |  |  |  |  |  |  |
| 109 ± 1 | 50.1 | CC(NC(=O)CNC(=O)c1cccc(Cl)c1)c1ccccc1 (stereo not shown) [JNJ-63533054, reference compound] |  |  |  |  |  |  |  |  | 109 % of JNJ-63533054 at Gi2 and 111 % of JNJ-63533054 at Gi2 and 108 % of JNJ-63533054 at Gi2 | 106 % of JNJ-63533054 at Gi2 and 107 % of JNJ-63533054 at Gi2 and 108 % of JNJ-63533054 at Gi2 | 107 % of JNJ-63533054 at Gi2 and 103 % of JNJ-63533054 at Gi2 and 104 % of JNJ-63533054 at Gi2 | 102 % of JNJ-63533054 at Gi2 and 99 % of JNJ-63533054 at Gi2 and 98 % of JNJ-63533054 at Gi2 | 92 % of JNJ-63533054 at Gi2 and 85 % of JNJ-63533054 at Gi2 (2×) | 75 % of JNJ-63533054 at Gi2 and 67 % of JNJ-63533054 at Gi2 and 70 % of JNJ-63533054 at Gi2 | 49 % of JNJ-63533054 at Gi2 and 44 % of JNJ-63533054 at Gi2 (2×) | 21 % of JNJ-63533054 at Gi2 (2×) and 20 % of JNJ-63533054 at Gi2 |
